Measured values published in the NIST ThermoML archive (doi:10.1021/je800998u).

Columns and labels:
[1] = Molar enthalpy of transition or fusion; conditions: Adiabatic calorimetry
[2] = for molar entropy / mass density: 101.33 kPa; for molar entropy: Small (less than 1 g) adiabatic calorimetry; for mass density: Pycnometric method; for vapor or sublimation pressure: Ebulliometric method (Recirculating still); for Triple point temperature: Adiabatic calorimetry

CC(C)COCC(C)C [diisobutyl ether]
Conditions | Molar enthalpy of transition or fusion, [1] [kcal/mol] | Triple point temperature, [2] [K]
Crystal 1 | 2.71 | 190.4
Crystal 2 | 0.43 | 170.71

[2]
Conditions | mass density [kg/m3] | molar entropy [J/K/mol] | vapor or sublimation pressure [kPa]
10 K, Crystal 2 | – | 0.4387 | –
15 K, Crystal 2 | – | 2.36 | –
20 K, Crystal 2 | – | 5.506 | –
25 K, Crystal 2 | – | 9.633 | –
30 K, Crystal 2 | – | 14.45 | –
35 K, Crystal 2 | – | 19.69 | –
40 K, Crystal 2 | – | 25.17 | –
45 K, Crystal 2 | – | 30.79 | –
50 K, Crystal 2 | – | 36.49 | –
55 K, Crystal 2 | – | 42.24 | –
60 K, Crystal 2 | – | 48.03 | –
65 K, Crystal 2 | – | 53.84 | –
70 K, Crystal 2 | – | 59.61 | –
75 K, Crystal 2 | – | 65.3 | –
80 K, Crystal 2 | – | 70.92 | –
85 K, Crystal 2 | – | 76.51 | –
90 K, Crystal 2 | – | 82.09 | –
95 K, Crystal 2 | – | 87.65 | –
100 K, Crystal 2 | – | 93.17 | –
110 K, Crystal 2 | – | 104 | –
120 K, Crystal 2 | – | 114.8 | –
130 K, Crystal 2 | – | 125.4 | –
140 K, Crystal 2 | – | 135.9 | –
150 K, Crystal 2 | – | 146.4 | –
160 K, Crystal 2 | – | 157.1 | –
170.71 K, Crystal 1 | – | 179.1 | –
170.71 K, Crystal 2 | – | 168.6 | –
180 K, Crystal 1 | – | 188.8 | –
190.4 K, Crystal 1 | – | 200.4 | –
190.4 K, Liquid | – | 259.9 | –
200 K, Liquid | – | 272.1 | –
210 K, Liquid | – | 284 | –
220 K, Liquid | – | 295.5 | –
230 K, Liquid | – | 306.6 | –
240 K, Liquid | – | 317.3 | –
250 K, Liquid | – | 327.8 | –
260 K, Liquid | – | 338 | –
270 K, Liquid | – | 348 | –
280 K, Liquid | – | 357.7 | –
290 K, Liquid | – | 367.2 | –
298.06 K, Liquid | 748.62 | – | –
298.07 K, Liquid | 748.49 | – | –
298.09 K, Liquid | 748.45 | – | –
298.14 K, Liquid | 748.69 | – | –
298.15 K, Liquid | – | 374.8 | –
298.18 K, Liquid | 748.69 | – | –
298.22 K, Liquid | 748.09 | – | –
300 K, Liquid | – | 376.5 | –
302.68 K, Liquid | 743.72 | – | –
302.73 K, Liquid | 744.19 | – | –
302.79 K, Liquid | 743.67 | – | –
302.81 K, Liquid | 744.14 | – | –
302.83 K, Liquid | 743.5 | – | –
302.86 K, Liquid | 743.47 | – | –
310 K, Liquid | – | 385.6 | –
312.72 K, Liquid | 733.67 | – | –
312.95 K, Liquid | 733.53 | – | –
312.99 K, Liquid | 733.64 | – | –
313.02 K, Liquid | 733.56 | – | –
313.03 K, Liquid | 734 | – | –
320 K, Liquid | – | 394.6 | –
330 K, Liquid | – | 403.5 | –
330.9 K, Liquid | – | – | 10.75
336.08 K, Liquid | – | – | 13.37
340 K, Liquid | – | 412.1 | –
341.66 K, Liquid | – | – | 16.76
347.21 K, Liquid | – | – | 20.79
350 K, Liquid | – | 420.8 | –
352.09 K, Liquid | – | – | 24.97
357.89 K, Liquid | – | – | 30.79
360 K, Liquid | – | 429.3 | –
363.27 K, Liquid | – | – | 37.12
369.46 K, Liquid | – | – | 45.66
370 K, Liquid | – | 437.7 | –
375.78 K, Liquid | – | – | 55.91
381.77 K, Liquid | – | – | 67.26
388.15 K, Liquid | – | – | 81.3
392.78 K, Liquid | – | – | 92.88
393.58 K, Liquid | – | – | 95
394.37 K, Liquid | – | – | 97.12
395.14 K, Liquid | – | – | 99.28
